Experimental data: ChEMBL document CHEMBL5365500, “Development and Antibacterial Properties of 4-[4-(Anilinomethyl)-3-phenylpyrazol-1-yl]benzoic Acid Derivatives as Fatty Acid Biosynthesis Inhibitors” (J Med Chem, 2023)
≈ marks a conversion by molar mass, not a printed value.

Columns and labels:
[1] = test system: Staphylococcus epidermidis; assay: Antimicrobial activity against antibiotic-resistant Staphylococcus epidermidis ATCC 700296 assessed as inhibition of visible growth measured after 20 to 24 hrs incubation by CLSI method; type: functional; settings: time 20-24 hrs
Staphylococcus aureus [2] = assay: Antimicrobial activity against antibiotic-resistant Staphylococcus aureus ATCC BAA-2312 assessed as inhibition of visible growth measured after 20 to 24 hrs incubation by CLSI method; type: functional; settings: time 20-24 hrs
Staphylococcus aureus [3] = assay: Antimicrobial activity against antibiotic-resistant Staphylococcus aureus ATCC 33592 assessed as inhibition of visible growth measured after 20 to 24 hrs incubation by CLSI method; type: functional; settings: time 20-24 hrs
Staphylococcus aureus [4] = assay: Antimicrobial activity against Staphylococcus aureus ATCC 25923 assessed as inhibition of visible growth measured after 20 to 24 hrs incubation by CLSI method; type: functional; settings: time 20-24 hrs
Staphylococcus aureus [5] = assay: Antimicrobial activity against antibiotic-resistant Staphylococcus aureus ATCC 700699 assessed as inhibition of visible growth measured after 20 to 24 hrs incubation by CLSI method; type: functional; settings: time 20-24 hrs
Bacillus subtilis = assay: Antimicrobial activity against antibiotic-resistant Bacillus subtilis ATCC 6623 assessed as inhibition of visible growth measured after 20 to 24 hrs incubation by CLSI method; type: functional; settings: time 20-24 hrs
Enterococcus faecalis [6] = assay: Antimicrobial activity against antibiotic-susceptible Enterococcus faecalis ATCC 29212 assessed as inhibition of visible growth measured after 20 to 24 hrs incubation by CLSI method; type: functional; settings: time 20-24 hrs
Staphylococcus aureus [7] = assay: Antimicrobial activity against antibiotic-resistant Staphylococcus aureus ATCC 33591 assessed as inhibition of visible growth measured after 20 to 24 hrs incubation by CLSI method; type: functional; settings: time 20-24 hrs
Enterococcus faecalis [8] = assay: Antimicrobial activity against antibiotic-resistant Enterococcus faecalis ATCC 51299 assessed as inhibition of visible growth measured after 20 to 24 hrs incubation by CLSI method; type: functional; settings: time 20-24 hrs
Enterococcus faecium = assay: Antimicrobial activity against antibiotic-resistant Enterococcus faecium ATCC 700221 assessed as inhibition of visible growth measured after 20 to 24 hrs incubation by CLSI method; type: functional; settings: time 20-24 hrs
Staphylococcus aureus [9] = assay: In vivo antimicrobial activity against Staphylococcus aureus Newman infected in Caenorhabditis elegans AU37 nematodes assessed as viability of nematodes incubated for 5 days by susceptibility test; type: functional; settings: 120 h, time 5 day
Staphylococcus aureus [10] = assay: In vivo antimicrobial activity against Staphylococcus aureus UAMS-1 infected in Caenorhabditis elegans AU37 nematodes assessed as viability of nematodes incubated for 5 days by susceptibility test; type: functional; settings: UAMS-1, 120 h, time 5 day
HEK293 = assay: Cytotoxicity against human HEK293 cells assessed as cell viability measured after 24 hrs by resazurin assay; type: toxicity, cell-based
Staphylococcus aureus [11] = assay: In vivo antimicrobial activity against Staphylococcus aureus USA300 infected in Caenorhabditis elegans AU37 nematodes assessed as viability of nematodes incubated for 5 days by susceptibility test; type: functional; settings: USA300, 120 h, time 5 day

Row | SMILES | MIC [1] [µg/mL] | MIC (Staphylococcus aureus [2]) [µg/mL] | MIC (Staphylococcus aureus [3]) [µg/mL] | MIC (Staphylococcus aureus [4]) [µg/mL] | MIC (Staphylococcus aureus [5]) [µg/mL] | MIC (Bacillus subtilis) [µg/mL] | MIC (Enterococcus faecalis [6]) [µg/mL] | MIC (Staphylococcus aureus [7]) [µg/mL] | MIC (Enterococcus faecalis [8]) [µg/mL] | MIC (Enterococcus faecium) [µg/mL] | MIC (Staphylococcus aureus [9]) [µg/mL] | MIC (Staphylococcus aureus [10]) [µg/mL] | IC50 (HEK293) [µg/mL] | MIC (Staphylococcus aureus [11]) [µg/mL]
1 | O=C(O)c1ccc(-n2cc(CNc3cc(Cl)c(F)cc3F)c(-c3ccc(F)c(F)c3)n2)cc1 | > 32 | > 32 | > 32 | > 32 | > 32 | > 32 | > 32 | > 32 | > 32 | > 32 |  |  |  | 
2 | O=C(O)c1ccc(-n2cc(CNc3ccc(F)c(F)c3F)c(-c3ccc(F)c(F)c3)n2)cc1 | > 32 | 8 (≈ 17.4 µM) | > 32 | > 32 | > 32 | 2 (≈ 4.35 µM) | > 32 | 2 (≈ 4.35 µM) | > 32 | > 32 |  |  |  | 
3 | O=C(O)c1ccc(-n2cc(CNc3cccc(Cl)c3)c(-c3ccc(F)cc3)n2)cc1 | 16 (≈ 37.9 µM) | 4 (≈ 9.48 µM) | 16 (≈ 37.9 µM) | 8 (≈ 19 µM) | 8 (≈ 19 µM) | 4 (≈ 9.48 µM) | 32 (≈ 75.9 µM) | 4 (≈ 9.48 µM) | 32 (≈ 75.9 µM) | 32 (≈ 75.9 µM) |  |  |  | 
4 | O=C(O)c1ccc(-n2cc(CNc3ccc(F)c(Cl)c3)c(-c3ccc(F)c(F)c3)n2)cc1 | 8 (≈ 17.5 µM) | 4 (≈ 8.74 µM) | 8 (≈ 17.5 µM) | 8 (≈ 17.5 µM) | 8 (≈ 17.5 µM) | 2 (≈ 4.37 µM) | 16 (≈ 34.9 µM) | 2 (≈ 4.37 µM) | 32 (≈ 69.9 µM) | 8 (≈ 17.5 µM) |  |  |  | 
5 | O=C(O)c1ccc(-n2cc(CNc3ccccc3)c(-c3ccc(F)c(F)c3)n2)cc1 | 16 (≈ 39.5 µM) | 32 (≈ 78.9 µM) | 32 (≈ 78.9 µM) | 16 (≈ 39.5 µM) | 32 (≈ 78.9 µM) | 8 (≈ 19.7 µM) | > 32 | 16 (≈ 39.5 µM) | > 32 | 32 (≈ 78.9 µM) |  |  |  | 
6 | CC(C)(C)c1ccc(NCc2cn(-c3ccc(C(=O)O)cc3)nc2-c2ccc(F)cc2)cc1 | 8 (≈ 18 µM) | 2 (≈ 4.51 µM) | 4 (≈ 9.02 µM) | 4 (≈ 9.02 µM) | 4 (≈ 9.02 µM) | 2 (≈ 4.51 µM) | 8 (≈ 18 µM) | 2 (≈ 4.51 µM) | 8 (≈ 18 µM) | 4 (≈ 9.02 µM) |  |  |  | 
7 | O=C(O)c1ccc(-n2cc(CNc3ccc(Br)c(Cl)c3)c(-c3ccc(F)cc3)n2)cc1 | 4 (≈ 7.99 µM) | 1 (≈ 2 µM) | 1 (≈ 2 µM) | 1 (≈ 2 µM) | 2 (≈ 3.99 µM) | 0.5 (≈ 0.998 µM) | 8 (≈ 16 µM) | 1 (≈ 2 µM) | 8 (≈ 16 µM) | 4 (≈ 7.99 µM) | 1 (≈ 2 µM) | 2 (≈ 3.99 µM) | 20 (≈ 39.9 µM) | 2 (≈ 3.99 µM)
8 | O=C(O)c1ccc(-n2cc(CNc3ccc(F)c(F)c3)c(-c3ccc(F)cc3)n2)cc1 | > 32 | > 32 | > 32 | > 32 | 16 (≈ 37.8 µM) | 16 (≈ 37.8 µM) | > 32 | > 32 | > 32 | > 32 |  |  |  | 
9 | O=C(O)c1ccc(-n2cc(CNc3ccc(C(F)(F)F)cc3)c(-c3ccc(F)c(F)c3)n2)cc1 | 4 (≈ 8.45 µM) | 2 (≈ 4.22 µM) | 2 (≈ 4.22 µM) | 2 (≈ 4.22 µM) | 4 (≈ 8.45 µM) | 1 (≈ 2.11 µM) | > 32 | 1 (≈ 2.11 µM) | > 32 | 8 (≈ 16.9 µM) |  |  |  | 
10 | CC(C)c1ccc(NCc2cn(-c3ccc(C(=O)O)cc3)nc2-c2ccc(F)cc2)cc1 | 8 (≈ 18.6 µM) | 4 (≈ 9.31 µM) | 8 (≈ 18.6 µM) | 8 (≈ 18.6 µM) | 4 (≈ 9.31 µM) | 2 (≈ 4.66 µM) | 16 (≈ 37.3 µM) | 4 (≈ 9.31 µM) | 8 (≈ 18.6 µM) | 4 (≈ 9.31 µM) |  |  |  | 
